These are literature values, as cited in patent US5612056A, “Transdermal formulations” (priority 1991, dated 1997).

For data set [1] the following is noted: guinea pig, in vivo.
The subject of the next data set is blood cholinesterase. The conditions noted are these: human, in vivo, iv.

Take `CNC(=O)Oc1ccc2c(c1)[C@]1(C)CCN(C)[C@@H]1N2C` [physostigmine]: the plasma half life in data set [1] is 40 to 50 min. The blood cholinesterase inhibition result in the data set with blood cholinesterase is listed as “approximately 30%”.
